# Measurements from patent publication US8835440B2, “Cyclic pyrimidin-4-carboxamides as CCR2 receptor antagonists for treatment of inflammation, asthma and COPD” (Boehringer Ingelheim International GmbH, priority 2008, dated 2014).
# Molecular target: T1, CCR2 (Homo sapiens, UniProt P41597)
# T1 construct: Membranes were prepared from THP-1 cells; endogenous in cells; host or cells: THP-1 cells (membrane preparation)
# T1 sequence (P41597 1-360 isoform P41597-2): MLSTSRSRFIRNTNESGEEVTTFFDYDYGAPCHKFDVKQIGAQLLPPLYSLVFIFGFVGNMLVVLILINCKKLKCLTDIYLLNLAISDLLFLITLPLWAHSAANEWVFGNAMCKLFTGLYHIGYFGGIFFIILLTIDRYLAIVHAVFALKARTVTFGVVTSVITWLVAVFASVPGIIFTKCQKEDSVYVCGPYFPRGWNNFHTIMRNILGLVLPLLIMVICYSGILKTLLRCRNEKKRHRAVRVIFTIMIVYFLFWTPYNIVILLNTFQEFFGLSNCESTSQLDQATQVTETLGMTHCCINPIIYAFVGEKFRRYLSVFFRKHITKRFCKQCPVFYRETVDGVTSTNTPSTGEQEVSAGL
# Assay: CCR2 receptor membrane binding assay ([125I]MCP-1, THP-1 cell membranes, SPA beads)
# Conditions: for remaining activity at 10 µM: @ 10 μM test compound, THP-1 membranes, read-out: CCR2 % ctrl @ 10 μM; for Ki: dissociation constant hKi, [125I]MCP-1 binding to THP-1 membranes
# Summary of the method: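 hKi was derived by iterative law-of-mass-action fitting of scintillation counts read at 8 h. Compound (1% DMSO final) competed with ca. 25000 cpm [125I]MCP-1 for THP-1 membranes bound to WGA-PVT beads. Buffer: 25 mM HEPES pH 7.2, 5 mM MgCl2, 0.5 mM CaCl2, 0.2% BSA.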
SMILES,remaining activity at 10 µM,Ki
Cc1c(NCc2ccc(C(C)(C)C)cc2)ncnc1C(=O)N1CCC(N2CCC(C#N)CC2)CC1 [Example 202],7%,292 nM
Cc1c(NCc2ccc(C(C)(C)C)cc2)ncnc1C(=O)N1CCC(N2CCC(Oc3ccc(F)c(F)c3)CC2)CC1 [Example 203],11%,641 nM
Cc1c(NCc2ccc(C(C)(C)C)cc2)ncnc1C(=O)N1CCC(N2CCC(Oc3ccccn3)CC2)CC1 [Example 204],6%,123 nM
Cc1c(NCc2ccc(C(C)(C)C)cc2)ncnc1C(=O)N1CCC(N2CCC(NS(=O)(=O)C(C)C)CC2)CC1 [Example 205],11%,135 nM
CCN(C1CCN(C2CCN(C(=O)c3ncnc(NCc4ccc(C(C)(C)C)cc4)c3C)CC2)CC1)S(C)(=O)=O [Example 206],3%,44 nM
Cc1nc(NCc2ccc(C(C)(C)C)cc2)c(C)c(C(=O)N2CCC(N3CCC(S(=O)(=O)N(C)C)CC3)CC2)n1 [Example 207],35%,1180 nM
COC1CCN(C2CCN(C(=O)c3ncnc(NCc4ccc(C(C)(C)C)cc4)c3C)CC2)CC1 [Example 208],7%,99 nM
Cc1c(NCc2ccc(C(C)(C)C)cc2)ncnc1C(=O)N1CCC(N2CCOC(C)C2)CC1 (centres unmarked) [Example 209],7%,177 nM
Cc1c(NCc2ccc(C(C)(C)C)cc2)ncnc1C(=O)N1CCC(N2CCC(c3ccccc3)C2)CC1 (centres unmarked) [Example 210],0%,83 nM
CCC(C)NC(=O)C1CCN(C2CCN(C(=O)c3ncnc(NCc4ccc(C(C)(C)C)cc4)c3C)CC2)CC1 (centres unmarked) [Example 211],5%,140 nM
Cc1c(NCc2ccc(C(C)(C)C)cc2)ncnc1C(=O)N1CCC(N2CCC(n3c(C)nnc3C)CC2)CC1 [Example 212],24%,731 nM
Cc1noc(C2CCN(C3CCN(C(=O)c4ncnc(NCc5ccc(C(C)(C)C)cc5)c4C)CC3)CC2)n1 [Example 213],14%,430 nM
CNC(=O)C[C@H]1CCCN1C1CCN(C(=O)c2ncnc(NCc3ccc(C(C)(C)C)cc3)c2C)CC1 [Example 214],20%,711 nM
CNC(=O)C[C@@H]1CCCN1C1CCN(C(=O)c2ncnc(NCc3ccc(C(C)(C)C)cc3)c2C)CC1 [Example 215],42%,2150 nM
Cc1c(NCc2ccc(C(C)(C)C)cc2)ncnc1C(=O)N1CCC(N2CCC[C@@H]2CC(=O)N(C)C)CC1 [Example 216],59%,4280 nM
Cc1c(NCc2ccc(C(C)(C)C)cc2)ncnc1C(=O)N1CCC(N2CCC[C@H]2CC(=O)N(C)C)CC1 [Example 217],54%,4330 nM

SMILES,remaining activity at 10 µM,Ki
Cc1c(NCc2ccc(C(C)(C)C)cc2)ncnc1C(=O)N1CCC(N2CC(C)OC(C)C2)CC1 (centres unmarked) [Example 218],8%,281 nM
CO[C@@H]1CCN(C2CCN(C(=O)c3ncnc(NCc4ccc(C(C)(C)C)cc4)c3C)CC2)C1 [Example 219],22%,476 nM
CO[C@H]1CCN(C2CCN(C(=O)c3ncnc(NCc4ccc(C(C)(C)C)cc4)c3C)CC2)C1 [Example 220],27%,979 nM
CNS(=O)(=O)C1CCN(C2CCN(C(=O)c3ncnc(NCc4ccc(C(C)(C)C)cc4)c3C)CC2)CC1 [Example 221],12%,172 nM
Cc1c(NCc2ccc(C(C)(C)C)cc2)ncnc1C(=O)N1CCC(N2CC(N(C)S(C)(=O)=O)C2)CC1 [Example 222],31%,1310 nM
Cc1c(NCc2ccc(C(C)(C)C)cc2)ncnc1C(=O)N1CCC(N2CC(NS(C)(=O)=O)C2)CC1 [Example 223],14%,244 nM
CNC(=O)C1(C)CCN(C2CCN(C(=O)c3ncnc(NCc4ccc(C(C)(C)C)cc4)c3C)CC2)CC1 [Example 224],35%,1230 nM
Cc1c(NCc2ccc(C(C)(C)C)cc2)ncnc1C(=O)N1CCC(N2CCC(c3ccccc3)CC2)CC1 [Example 225],0%,21 nM
Cc1c(NCc2ccc(Cl)c(Cl)c2)ncnc1C(=O)N1CCC(N2CC[C@H](N(C)S(C)(=O)=O)C2)CC1 [Example 226],36%,1170 nM
CO[C@@H]1CN(C2CCN(C(=O)c3ncnc(NCc4ccc(Cl)c(Cl)c4)c3C)CC2)CC[C@H]1N(C)S(C)(=O)=O [Example 227],22%,333 nM
Cc1c(NCc2ccc(Cl)c(Cl)c2)ncnc1C(=O)N1CCC(N2CCC(S(N)(=O)=O)CC2)CC1 [Example 228],16%,331 nM
Cc1c(NCCc2ccc(Cl)c(Cl)c2)ncnc1C(=O)N1CCC(N2CCC[C@H](O)C2)CC1 [Example 229],39%,1130 nM
CC(=O)N1CCN(C2CCN(C(=O)c3ncnc(NCCc4ccc(Cl)c(Cl)c4)c3C)CC2)CC1 [Example 230],45%,1840 nM
Cc1c(NCCc2ccc(Cl)c(Cl)c2)ncnc1C(=O)N1CCC(N2CCC[C@@H](O)C2)CC1 [Example 231],15%,215 nM
Cc1c(NCCc2ccc(Cl)c(Cl)c2)ncnc1C(=O)N1CCC(N2CC[C@@H](C(N)=O)C2)CC1 [Example 232],34%,924 nM
Cc1c(NCc2ccc(Cl)c(Cl)c2)ncnc1C(=O)N1CCC(N2CCCC(F)C2)CC1 (centres unmarked) [Example 233],8%,194 nM

# Other lines, results leading:
remaining activity at 10 µM,Ki,SMILES
9%,1560 nM,Cc1c(NCc2ccc(C(C)(C)C)cc2)ncnc1C(=O)N1CCC(N(C)C2CCCOC2)CC1 (centres unmarked) [Example 228a]
4%,2 nM,COC1COCCC1NC1CCN(C(=O)c2ncnc(NCC3CCC[C@@H](c4ccccc4)C3)c2C)CC1 (some centres unmarked) [Example 228b]
0%,29 nM,COC1COCCC1NC1CCN(C(=O)c2ncnc(NCc3ccc(C(C)(C)C)cc3)c2C)CC1 (centres unmarked) [Example 228c]
1%,91 nM,Cc1c(NCc2ccc(C(C)(C)C)cc2)ncnc1C(=O)N1CCC(NC2CCOCC2F)CC1 (centres unmarked) [Example 228d]
40%,3720 nM,CCOC(=O)N1CCC(NC2CCN(C(=O)c3ncnc(NCc4ccc(C(C)(C)C)cc4)c3C)CC2)C(OC)C1 (centres unmarked) [Example 228e]
1%,15 nM,Cc1c(NCc2ccc(C(C)(C)C)cc2)ncnc1C(=O)N1CCC(NC2CCOc3ccccc32)CC1 (centres unmarked) [Example 228f]
6%,169 nM,COC1CC(F)(F)CCC1NC1CCN(C(=O)c2ncnc(NCc3ccc(C(C)(C)C)cc3)c2C)CC1 (centres unmarked) [Example 228g]
–,23 nM,CO[C@@H]1COCC[C@@H]1NC1CCN(C(=O)c2ncnc(NCc3ccc(C(C)(C)C)cc3)c2C)CC1 [Example 228ga]
–,561 nM,CC(=O)N1CCC[C@@H](NC2CCN(C(=O)c3ncnc(NCc4ccc(C(C)(C)C)cc4)c3C)CC2)C1 [Example 228gc]
–,1090 nM,Cc1c(NCc2ccc(C(C)(C)C)cc2)ncnc1C(=O)N1CCC(N[C@@H]2CCCN(S(C)(=O)=O)C2)CC1 [Example 228gd]
–,37 nM,Cc1c(NCc2ccc(C(C)(C)C)cc2)ncnc1C(=O)N1CCC(N2CCC(COc3ccccc3)C2)CC1 (centres unmarked) [Example 228ge]
–,145 nM,Cc1c(NCc2ccc(C(C)(C)C)cc2)ncnc1C(=O)N1CCC(N2CCC(Cc3cccnc3)C2)CC1 (centres unmarked) [Example 228gf]
–,1030 nM,Cc1c(NCc2ccc(C(C)(C)C)cc2)ncnc1C(=O)N1CCC(N2CCc3ncc(C(F)(F)F)cc3C2)CC1 [Example 228gg]
–,4070 nM,Cc1c(NCc2ccc(C(C)(C)C)cc2)ncnc1C(=O)N1CCC(NCC2CCCCO2)CC1 (centres unmarked) [Example 228gh]
–,1100 nM,Cc1c(NCc2ccc(C(C)(C)C)cc2)ncnc1C(=O)N1CCC(NC2CCOc3cccnc32)CC1 (centres unmarked) [Example 228gi]
–,55 nM,Cc1c(NCc2ccc(C(C)(C)C)cc2)ncnc1C(=O)N1CCC(N2CCC3(CC2)CNC(=O)O3)CC1 [Example 228gj]
–,44 nM,Cc1c(NCc2ccc(C(C)(C)C)cc2)ncnc1C(=O)N1CCC(N2CCC(c3ccc(C#N)cc3)CC2)CC1 [Example 228gk]
–,537 nM,Cc1c(NCc2ccc(C(C)(C)C)cc2)ncnc1C(=O)N1CCC(N2CCC(Cc3ccc(F)c(F)c3)CC2)CC1 [Example 228gl]
–,28 nM,Cc1c(NCc2ccc(C(C)(C)C)cc2)ncnc1C(=O)N1CCC(N2C3CCC2CC(O)C3)CC1 (centres unmarked) [Example 228gm]
–,333 nM,CO[C@@H]1COCC[C@H]1NC1CCN(C(=O)c2ncnc(NCc3ccc(C(C)(C)C)cc3)c2C)CC1 [Example 228gn]
–,1350 nM,Cc1c(NCc2ccc(C(C)(C)C)cc2)ncnc1C(=O)N1CCC(NC2CCOCC2n2ncnn2)CC1 (centres unmarked) [Example 228gp]
0%,5 nM,COC1COCCC1N(C)C1CCN(C(=O)c2ncnc(NCC3CCC[C@@H](c4ccccc4)C3)c2C)CC1 (some centres unmarked) [Example 228h]
–,32 nM,CO[C@@H]1COCC[C@@H]1N(C)C1CCN(C(=O)c2ncnc(NCc3ccc(C(C)(C)C)cc3)c2C)CC1 [Example 228ha]
